Assay: Stability of CBD in simulated gastric fluid (SGF)
Type: physicochemical
Details: 37° C.
Experimental: A medium of stimulating gastric fluid (SGF) was prepared by dissolving sodium chloride (0.2 w/v %) and hydrochloric acid (0.1M) in DDW, and incubated at 37° C.
For MeOH solution sodium dodecyl sulfate (1 w/v %) was added to the SGF. 500 ml of SGF mediums was contained in an appropriate Erlenmeyer flask. At time 0-1 ml of each CBD stock solution was added to the SGF. The mixture was vigorously shaken at a water bath warmed to 37° C. and immediately 1 ml of the solution was sampled and replaced with an equal volume of preheated SGF medium. Similarly, same volume was sampled at 5, 10, 15, 20, 30, 45, 60, 75, 90, 120, 150 and 180 minutes. Each 1 mL sample was immediately neutralized to a pH of 7 to 9, with 980 μL of 0.1M sodium hydroxide solution and 3 ml MeOH, and pH levels were tested. All samples were kept at 4° C. until HPLC analysis.
For MeOH solution and AX1 system additional samples were taken every 30 min and injected directly into the HPLC without further treatment. […] The measured CBD concentration was divided to the initial concentration (C/C0) at each time point.
In comparison, the CBD profile in SGF with a commercial product (‘RSHO’™—containing CBD dissolved in vegetable oil) and CBD dissolved in pure olive oil were evaluated.

With `C=C(C)[C@@H]1CCC(C)=C[C@H]1c1c(O)cc(CCCCC)cc1O` [CBD in MeOH, cannabidiol] the “Start of CBD degradation” value was 5 min, the CBD left (after 2 hours) was “less than 4%” and the “CBD degradation in SGF (in words)” value (up to 180 min) was “significant degradation over time”. For the same compound, the CBD decomposed (within 30 min) was 68%.

Reference: patent US11819491B2, “Dilutable formulations of cannabinoids and processes for their preparation” (Yissum Research Development Company of the Hebrew …, priority 2016, dated 2023)
